US6903132B2, “Non-peptide GnRH agents, pharmaceutical compositions and methods for their use” (Agouron Pharmaceuticals, Inc., priority 2002, dated 2005)

Legend:
human GnRH receptors = molecular target: T1, human GnRH receptors (Homo sapiens, UniProt P30968); assay: Radioligand binding assay: inhibition of binding of 125I-GnRH-A to GnRH receptors (membranes); conditions: Human GnRH receptor; competition with 125I-GnRH-A; Ki calculated from IC50 (Cheng et al.)
T1 construct: expressed in transfected cells; host or cells: HEK 293
T1 sequence (P30968 1-328): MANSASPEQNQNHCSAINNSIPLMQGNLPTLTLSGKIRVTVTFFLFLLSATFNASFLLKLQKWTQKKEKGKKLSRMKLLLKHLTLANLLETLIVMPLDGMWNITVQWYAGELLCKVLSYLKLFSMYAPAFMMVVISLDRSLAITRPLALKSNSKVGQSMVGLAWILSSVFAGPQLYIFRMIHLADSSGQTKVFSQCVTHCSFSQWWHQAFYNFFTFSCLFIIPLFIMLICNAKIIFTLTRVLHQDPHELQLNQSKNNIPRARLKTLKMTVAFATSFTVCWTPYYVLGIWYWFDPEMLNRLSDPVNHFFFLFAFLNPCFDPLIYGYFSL
In short: (§1)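 Membranes from HEK 293 expressing mouse or human receptor, or rat pituitaries, incubated 1 h at RT with ~0.04–0.06 nM ¹²⁵I-[des-Gly¹⁰,D-Ala⁶]GnRH ethylamide and competitor (0.1–10,000 nM) in HEPES pH 7.4 with MgCl2, EDTA, BSA. Filtration onto PEI-soaked GF/C filters, scintillation counting; Ki from IC50 by Cheng–Prusoff.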

mouse GnRH receptors = molecular target: T2, mouse GnRH receptors (Mus musculus, UniProt Q01776); assay: as above; conditions: Mouse GnRH receptor; competition with 125I-GnRH-A; Ki calculated from IC50 (Cheng et al.)
T2 construct: expressed in transfected cells; host or cells: HEK 293
T2 sequence (Q01776 1-327): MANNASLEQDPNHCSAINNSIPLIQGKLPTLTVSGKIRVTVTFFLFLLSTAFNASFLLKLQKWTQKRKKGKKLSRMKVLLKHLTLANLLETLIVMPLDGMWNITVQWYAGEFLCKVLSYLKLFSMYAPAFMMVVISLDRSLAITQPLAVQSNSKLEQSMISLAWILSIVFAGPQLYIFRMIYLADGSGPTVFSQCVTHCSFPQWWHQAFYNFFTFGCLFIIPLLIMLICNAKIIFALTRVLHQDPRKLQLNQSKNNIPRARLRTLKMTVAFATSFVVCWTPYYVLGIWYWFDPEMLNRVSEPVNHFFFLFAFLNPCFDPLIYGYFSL
In short: as §1

[1] = Pharmacokinetics in female rats; format: in vivo, rat; conditions: for FR Fp.o.: 20 mg/kg as 10 mg/ml solution in 10% DMSO 10% cremophor 80% saline, AUCp.o./AUCi.v.; for Tmax: rat, plasma, po, dose and vehicle per footnote, read-out: FR Tmax hr
Description: Rats (male or female, 200-225 g) are prepared with indwelling jugular vein cannula as described by Harms et al., Applied Physiol. 36:391-398 (1974), and allowed to recover overnight with free access to the standard vivarium chow and water. […] […] The blood samples are withdrawn at specific times, plasma is immediately separated and compound extracted with ethyl acetate. The samples are analyzed by LC-MS using 30-90% gradient of ACN in 50 mM ammonium acetate.
The pharmacokinetic parameters are calculated using WinNonlin software (Scientific Consulting Inc.). The bioavailability is calculated as AUCp.o./AUCi.v., where AUCp.o. and AUCi.v. are areas under the plasma concentration-time curve after oral and i.v. administration, respectively.

SMILES	Ki (human GnRH receptors) [nM]	Ki (mouse GnRH receptors) [nM]	FR Fp.o. [1] [%^1]	Tmax [1] [h]
Cc1cc2c(cc1Cc1ccc(C(=O)NNc3cc(C)c4c(C)nn(C)c4n3)o1)C(C)(C)CCC2(C)C [Example C1, 5-[(3,5,5,8,8-Pentamethyl-5,6,7,8-tetrahydro-2-naphthalenyl)methyl]-N′-(1,3,4-trimethyl-1H-pyrazolo[3,4-b]pyridin-6yl)-2-furohydrazide]	3	7	19	1
COc1cc2c(cc1Cc1ccc(C(=O)NNc3cc(C)c4c(C)nn(C)c4n3)o1)C(C)(C)CCC2(C)C [Example C2, 5-[(3-Methoxy-5,5,8,8-tetramethyl-5,6,7,8-tetrahydro-2-naphthalenyl)methyl]-N′-(1,3,4-trimethyl-1H-pyrazolo[3,4-b]pyridin-6-yl)-2-furohydrazide]	9.5	23	15	2
